Data published in patent publication US9556111B2, “Tertiary amines for use in the treatment of cardiac disorders” (Universitetet I Oslo, priority 2012, dated 2017).
Like-named read-outs stand apart in the source and are kept apart here.

Legend:
[1] = tested on: metabolically active cells; assay: Cell viability luminescence assay; assay type: cell-based; settings: 24 hours incubation
Description: Compound toxicity was measured in a luminescence assay that gives a signal proportional to the amount of metabolically active cells in the sample; the assay was performed as described by the supplier. All synthesized compounds were tested in the viability assay, and viability was registered at 24 hours and 72 hours.

[2] = tested on: PLB-Ser^16 phosphorylation; assay: PLB-Ser16 phosphorylation in isoproterenol-stimulated rat neonatal cardiomyocytes (western blot); assay type: cell-based; settings: for Effect on PLB phosphorylation in cardiomyocytes / effect on PLB phosphorylation: rat neonatal cardiomyocytes; for Effect on PLB phosphorylation in cardiomyocytes: compounds 24 hours prior isoproterenol (100 nM, 5 minutes); for IC50: Rattus norvegicus, Cardiomyocyte, read-out: half-maximal effect, inhibition of phospholamban phosphorylation; for effect on PLB phosphorylation: Example 53
Description: FIG. 7: Disruption of the AKAP18δ-PLB complex influences PLB-Ser^16 phosphorylation. Rat neonatal cardiomyocytes treated with compounds 24 hours prior stimulation with isoproterenol (100 nM, 5 minutes).
(§1) FIG. 9: Disruption of the AKAP18δ-PLB complex influences PLB-Ser^16 phosphorylation. Rat neonatal cardiomyocytes treated with compound 2g (A) or 3d (C) 24 hours prior stimulation with isoproterenol (100 nM, 5 minutes). Rat adult cardiomyocytes treated with compound 2g (B) 1 hour prior to stimulation with isoproterenol (10 nM, 5 minutes). The histograms show levels of phosphorylated Ser^16-PLB quantified by densitometry on Western blots (relative to actin levels).
Based on data from studies in cardiomyocytes assay using a peptide that blocks AKAP18δ-PLB interaction, it was expected that effective compounds would also cause disruption of the AKAP18δ-PLB complex and decrease PLB-Ser^16 phosphorylation (Lygren et al. in EMBO Reports, volume 8, issue 11, page 1061-1067 (2007). A small selection of hits from the derivatized compounds were tested in this cell-based assay, performed as described in Lygren et al.
Briefly, compounds were added to primary cultures of rat neonatal cardiomyocytes were added compounds about 24 hour prior stimulation with isoproterenol, and amount of phosphorylated Ser^16-PLB was analyzed by western blotting using a pSer^16-PLB phosphospecific antibody. Actin was used as a loading control.
Rat neonatal cardiomyocytes treated with compounds 24 hours prior stimulation with isoproterenol (100 nM, 5 minutes).

[3] = tested on: PLB-Ser^16 phosphorylation; assay: PLB-Ser16 phosphorylation in isoproterenol-stimulated rat adult cardiomyocytes; assay type: cell-based; settings: Cardiomyocyte, 1 hour prior isoproterenol (10 nM, 5 minutes), read-out: half-maximal effect, inhibition of phospholamban phosphorylation
Description: as §1
Following on Example 53, two compounds, 2g and 3d (FIGS. 9A.B and 9C, respectively), were tested in more detail for their ability to interfere with phosphorylation of phospholamban after stimulation of neonatal (FIGS. 9A and 9C) or adult (FIG. 9B) primary cultures of cardiomyocytes.

SERCA2 = SERCA2 (Rattus norvegicus (Rat), UniProt P11507); assay: Patch clamp based SERCA2 activity assay in intact adult rat cardiomyocytes; settings: 10 uM mesylate salt, cell dialysis in the presence of cAMP, preliminary data
Description: FIG. 10: Compound 2g regulates SERCA2-activity. A novel patch clamp based technique was performed to directly assess SERCA-activity independently of receptor stimulation in intact cardiomyocytes. By dialyzing cardiomyocytes with a fixed level of cAMP with and without presence of compound 2g, preliminary data indicates ability of compound 2g to regulate SERCA2-activity in intact adult cardiomyocytes.
Adult rat cardiomyocytes were isolated and perfused with external solution (NaCl-125, CsCl 20, D-glucose 5, MgCl2 1, CaCl2 1.8, Hepes 10, 4-aminopyridine 5, probenecid 2, pH 7.4 by NaOH). […] Whole-cell Ca fluorescence measured from voltage-clamped cells was performed with Cairn Research Optoscan Monochromator (Excitation 488 nm, emission 515 nm long pass) (Cain Research Ltd., Faverham, UK). By applying 100 ms square voltage step from −45 to 0 mV at 0.125 Hz by an Axoclamp 2B amplifier (Axon Instruments, Foster City, Calif., USA), basal Ca transients were recorded, and tau values were obtained by monoexponential fitting of the Ca^2+ extrusion phase from regular transients (τ) and caffeine transients (τcaff) after rapid applications of 10 mM caffeine. SERCA2 rate constant were calculated as: k_SERCA=1/τ−1/τcaff.

[4] = Aqueous solubility of free bases and various salts by dissolution at room temperature; assay type: physicochemical; settings: water, thermodynamic from solid
Description: The aqueous solubility of various amine compounds and their corresponding salts were determined by dissolution of various amounts of the respective compounds at room temperature.

[5] = Aqueous solubility of tribenzylamine and salts quantified by HPLC (AUC); assay type: physicochemical; settings: HPLC area under curve
Description: Tribenzylamine and the corresponding salts were dissolved in water and the solubility was quantified (area under curve (AUC)) by HPLC
Solubility of Tribenzylamine and its Corresponding HCl and Mesylate Salts, Tested on HPLC.

[6] = 24 hours prior isoproterenol (100 nM, 5 minutes)
[7] = HCl salt, read-out: Solubility HCl salt
[8] = free base, read-out: Solubility free base
[9] = mesylate salt, read-out: Solubility Mesylate salt

| SMILES | Viability (100 μM) 24 hours [1] | solubility [4, 7] [µg/mL] | solubility [4, 8] [µg/mL] | solubility [4, 9] [µg/mL] | further results |
| --- | --- | --- | --- | --- | --- |
| Fc1ccc(CN(Cc2ccncc2)Cc2ccc(F)cc2)cc1 [Compound 2a, N,N-bis(4-fluorobenzyl)-1-(pyridin-4-yl)methanamine] | 0.85 |  |  |  |  |
| Oc1ccc(O)c(CN(Cc2ccncc2)Cc2cc(O)ccc2O)c1 [Compound 2b, 2,2′-(((pyridin-4-ylmethyl)azanediyl)bis(methylene))bis(benzene-1,4-diol)] | 0.10 |  |  |  | Effect on PLB phosphorylation in cardiomyocytes [2]: − |
| Fc1ccc(CN(Cc2ccc(F)cc2)Cc2nccs2)cc1 [Compound 2c, N,N-bis(4-fluorobenzyl)-1-(thiazol-2-yl)methanamine] | 1.11 |  |  |  |  |
| COc1ccc(CN(Cc2ccc(OC)cc2)Cc2nccs2)cc1 [Compound 2d, N,N-bis(4-methoxybenzyl)-1-(thiazol-2-yl)methanamine] | 1.15 |  |  |  |  |
| COc1ccc(CN(Cc2ccccc2)Cc2ccc(OC)cc2)cc1 [Compound 2e, N-benzyl-N-(4-methoxybenzyl)-1-(4-methoxyphenyl)methanamine] | 1.01 |  |  |  |  |
| COC(=O)c1ccc(CN(Cc2ccccc2)Cc2ccc(C(=O)OC)cc2)cc1 [Compound 2f, dimethyl 4,4′-((benzylazanediyl)bis(methylene))dibenzoate] | 0.92 |  |  |  |  |
| CN(C)c1ccc(CN(Cc2ccccc2)Cc2ccc(N(C)C)cc2)cc1 [Compound 2g, 4-((benzyl(4-(dimethylamino)benzyl)amino)methyl)-N,N-dimethylaniline] | 0.56 |  |  |  | IC50 [2]: ~40 µM; effect on PLB phosphorylation [2, 6]: concentration dependent inhibition of PLB-phosphorylation; Effect on PLB phosphorylation in cardiomyocytes [2]: ++; IC50 [3]: ~100 µM; SERCA2 activity (SERCA2): increased SERCA2 activity |
| CC(c1ccccc1)N(Cc1ccc(N(C)C)cc1)Cc1ccc(N(C)C)cc1 (stereo not shown) [Compound 2h, 4-(((4-(dimethylamino)benzyl)(1-phenylethyl)amino)methyl)-N,N-dimethylaniline] | 0.91 |  |  |  |  |
| CC(C)(C)c1ccc(CN(Cc2ccncc2)Cc2ccc(F)cc2)cc1 [Compound 3a, N-(4-(tert-butyl)benzyl)-N-(4-fluorobenzyl)-1-(pyridin-4-yl)methanamine] | 0.79 |  |  |  |  |
| Oc1ccc(O)c(CN(Cc2ccncc2)Cc2ccc(F)cc2)c1 [Compound 3b, 2-(((4-fluorobenzyl)(pyridin-4-ylmethyl)amino)methyl)benzene-1,4-diol] | 0.03 |  |  |  |  |
| CN(C)c1ccc(CN(Cc2ccccc2)CC(c2ccccc2)c2ccccc2)cc1 [Compound 3c, 4-((benzyl(2,2-diphenylethyl)amino)methyl)-N,N-dimethylaniline] | 0.74 |  |  |  | effect on PLB phosphorylation [2, 6]: somewhat weaker than that of 2g; Effect on PLB phosphorylation in cardiomyocytes [2]: + |
| CN(C)c1ccc(CN(Cc2ccccc2)Cc2ccc3c(c2)CCO3)cc1 [Compound 3d] | 0.58 |  |  |  | IC50 ([2]; neonatal cardiomyocytes, 24 hours prior isoproterenol (100 nM, 5 minutes)): ~100 µM; effect on PLB phosphorylation [2, 6]: did not appear to have an effect; Effect on PLB phosphorylation in cardiomyocytes [2]: − |
| COC(=O)c1ccc(CN(Cc2ccccc2)Cc2ccc(F)cc2)cc1 [Compound 3e, methyl 4-((benzyl(4-fluorobenzyl)amino)methyl)benzoate] | 0.57 |  |  |  |  |
| O=C(O)c1ccc(CN(Cc2ccccc2)Cc2ccc(F)cc2)cc1 [Compound 3f, 4-((benzyl(4-fluorobenzyl)amino)methyl)benzoic acid] | 0.98 |  |  |  | effect on PLB phosphorylation [2, 6]: did not appear to have an effect; Effect on PLB phosphorylation in cardiomyocytes [2]: + |
| Fc1ccc(CN(Cc2ccccc2)Cc2ccc(-c3ccccc3-c3nn[nH]n3)cc2)cc1 [Compound 3g, 1-(2′-(2H-tetrazol-5-yl)-[1,1′-biphenyl]-4-yl)-N-benzyl-N-(4-fluorobenzyl)methanamine] | 0.80 |  |  |  |  |
| COC(=O)c1ccc(CN(Cc2ccccc2)Cc2ccc(C(=O)OC)cc2)cc1 [Compound 17, dimethyl 4,4′-((benzylazanediyl)bis(methylene))dibenzoate] |  | < 360 | < 360 | < 360 |  |
| O=C(O)c1ccc(CN(Cc2ccccc2)Cc2ccc(C(=O)O)cc2)cc1 [Compound 18] |  | < 50 | < 50 | < 50 |  |
| CC(C)(C)c1ccc(CN(Cc2ccccc2)Cc2ccc(C(C)(C)C)cc2)cc1 [Compound 19, N-benzyl-N-(4-(tert-butyl)benzyl)-1-(4-(tert-butyl)phenyl)methanamine] |  | < 50 | < 50 | < 50 |  |
| O=[N+]([O-])c1ccc(CN(Cc2ccccc2)Cc2ccc([N+](=O)[O-])cc2)cc1 [Compound 20, N-benzyl-N-(4-nitrobenzyl)-1-(4-nitrophenyl)methanamine] |  | < 3000 | < 3000 | < 3000 |  |
| Nc1ccc(CN(Cc2ccccc2)Cc2ccc(N)cc2)cc1 [Compound 22, 4-(((4-aminobenzyl)(benzyl)amino)methyl)aniline] |  | 4500 | < 50 | > 22000 |  |
| CCN(CC)c1ccc(CN(Cc2ccccc2)Cc2ccc(N(CC)CC)cc2)cc1 [Compound 23, 4-((benzyl(4-(diethylamino)benzyl)amino)methyl)-N,N-diethylaniline] |  | 15000 | < 50 | > 34000 |  |
| Cc1ccc(NC(=O)Nc2ccc(CN(Cc3ccccc3)Cc3ccc(NC(=O)Nc4ccc(C)cc4)cc3)cc2)cc1 [Compound 25, 1,1′-(((benzylazanediyl)bis(methylene))bis(4,1-phenylene))bis(3-(p-tolyl)urea)] |  | < 50 | < 50 | < 50 |  |
| O=C(Nc1ccc(F)cc1)Nc1ccc(CN(Cc2ccccc2)Cc2ccc(NC(=O)Nc3ccc(F)cc3)cc2)cc1 [Compound 26, 1,1′-(((benzylazanediyl)bis(methylene))bis(4,1-phenylene))bis(3-(4-fluorophenyl)urea)] |  | < 1500 | < 1500 | < 1500 |  |
| O=C(Nc1ccccc1)Nc1ccc(CN(Cc2ccccc2)Cc2ccc(NC(=O)Nc3ccccc3)cc2)cc1 [Compound 27, 1,1′-(((benzylazanediyl)bis(methylene))bis(4,1-phenylene))bis(3-phenylurea)] |  | < 500 | < 500 | < 500 |  |
| CN(C)c1ccc(CN(Cc2ccccc2)Cc2ccc(N(C)C)cc2)cc1 [Compound 29, 4-((benzyl(4-(dimethylamino)benzyl)amino)methyl)-N,N-dimethylaniline] |  | 6000 | < 160 | 94000 |  |
| c1ccc(CN(Cc2ccccc2)Cc2ccccc2)cc1 [Tribenzylamine] |  |  |  |  | AUC HCl salt ([5]; HCl salt dissolved in water): 406 mAu*s; AUC Free base ([5]; free base dissolved in water): ≈0 mAu*s; AUC Mesylate salt ([5]; mesylate salt dissolved in water): 1975 mAu*s |
